The values that follow come from BindingDB's records for doi:10.1016/s0960-894x(03)00389-5 (National Institute On Drug Abuse-Intramural Research Program, 2003).

Assay [1] in a line: Agonistic activity of quinpirole stimulation of mitogenesis in human Dopamine receptor D3 transfected CHO cells.
Assay [2] is described as follows: Agonistic activity of quinpirole stimulation of mitogenesis in human dopamine D3 transfected CHO cells.

As usually defined, the EC50 is the concentration giving half of the maximal effect. Read a low EC50 as a more potent agent.

Consider `O=C(NC/C=C/CN1CCN(c2cccc(Cl)c2Cl)CC1)c1ccccc1` [N-{(E)-4-[4-(2,3-Dichloro-phenyl)-piperazin-1-yl]-but-2-enyl}-benzamide], for which the EC50 in assay [1] was over 10 µM.

Compound `O=C(NC/C=C\CN1CCN(c2cccc(Cl)c2Cl)CC1)c1ccccc1` [N-{(Z)-4-[4-(2,3-Dichloro-phenyl)-piperazin-1-yl]-but-2-enyl}-benzamide] registered an EC50 in assay [2] of over 10 µM.
